pIC50: −log10 of the molar value. Where only a bound is given, the exact number is not on record here.

In the experiment the target is T1, Human JNK 3 (Homo sapiens, UniProt P53779).
T1 construct: made in house; host or cells: Escherichia coli
T1 sequence (P53779 whole entry): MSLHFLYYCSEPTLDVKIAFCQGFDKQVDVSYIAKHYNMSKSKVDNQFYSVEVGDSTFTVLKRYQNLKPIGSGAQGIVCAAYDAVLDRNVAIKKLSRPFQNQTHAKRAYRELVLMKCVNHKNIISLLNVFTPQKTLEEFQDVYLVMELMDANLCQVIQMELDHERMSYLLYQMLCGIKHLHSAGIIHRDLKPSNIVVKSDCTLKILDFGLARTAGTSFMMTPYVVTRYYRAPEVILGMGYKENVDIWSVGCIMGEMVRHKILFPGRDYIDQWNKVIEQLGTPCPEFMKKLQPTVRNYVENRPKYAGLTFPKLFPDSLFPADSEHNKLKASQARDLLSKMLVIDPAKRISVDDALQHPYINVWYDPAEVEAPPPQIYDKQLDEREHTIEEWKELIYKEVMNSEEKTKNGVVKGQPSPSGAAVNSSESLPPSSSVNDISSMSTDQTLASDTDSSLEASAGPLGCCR
Briefly: Determination of JNK 3 Inhibition. It is filed as biochemical. Conditions: GST-JNK 3 enzyme, GST-c-Jun (1-169) substrate, [γ-33P]ATP, 3.33 μM ATP, 30 minutes, SPA beads. Here is the method: Test Example 1 Determination of JNK 3 Inhibition
Human JNK 3 was expressed as a fusion protein (GST-JNK 3) with glutathione S-transferase (GST) in Escherichia coli and was purified using glutathione Sepharose 4B beads. The amino acid sequence 1-169 of c-Jun was […] as a fusion protein (GST-c-Jun) with GST in Escherichia coli, was purified using glutathione Sepharose 4B beads and was used as a substrate. A test compound was diluted with 100% dimethyl sulfoxide into 10 mM and was then further diluted with 10% aqueous dimethyl sulfoxide solution to yield a dilution series. To each well of 96-well OPTI plate (available from Packard) were placed 20 μl of the diluted compound, 30 μl of a substrate solution (1.2 μg of GST-c-Jun, […], 0.2 μCi of [γ-^33P]ATP, 25 mM of HEPES pH=7.5, 10 mM of magnesium acetate, and 3.33 μM of ATP), and 50 μl of an enzyme solution (0.04 μg of GST-JNK 3, 25 mM of HEPES pH=7.5, and 10 mM magnesium acetate) up to 100 μl, and the mixture was allowed to react for 30 minutes. After terminating the reaction by adding 100 μl of a reaction terminator (80 mM ATP, 5 mg/ml glutathione SPA beads (available from Amersham Pharmacia Biotech)), the reaction mixture was shaken for 30 minutes. The mixture was centrifuged at room temperature at 1000×g for 5 minutes, and the emission intensity thereof was determined on a TopCount™ illuminator (available from Packard). The activity is expressed by the 50% inhibitory concentration on the enzymatic activity of JNK, i.e., IC50 (nM).
As a reminder, the pIC50 is the IC50 on a negative log10 scale, so that one unit is a factor of ten. A higher pIC50 goes with a small IC50. In the case of `Nc1cccc2c1CCc1cccc3[nH]nc-2c13` [Example 8, 6,7-Dihydro-2H-benzo[6,7]cyclohepta[cd]indazole-8-amine], the pIC50 is ≥ 6.52. With `O=C(NC1CC1)c1cccc2c1C=Cc1cccc3[nH]nc-2c13` [Example 21, N8-Cyclopropyl-2H-benzo[6,7]cyclohepta[cd]indazole-8-carboxamide], the pIC50 was ≥ 6.52. On to `OCc1cccc2c1C=Cc1cccc3[nH]nc-2c13` [Example 6, 2H-Benzo[6,7]cyclohepta[cd]indazol-8-ylmethanol], for which the pIC50 is ≥ 6.52. As to `Cc1ccc2[nH]nc3c2c1NC(=O)c1ccccc1-3` [Example 25, 5-Methyl-6,7-dihydro-2H-benzo[5,6]azepino[4,3,2-cd]indazol-7-one], the pIC50 is ≥ 6.52.

`O=C(NCc1ccco1)c1cccc2c1C=Cc1cccc3[nH]nc-2c13` [Example 20, N8-(2-Furylmethyl)-2H-benzo[6,7]cyclohepta[cd]indazole-8-carboxamide]: the pIC50 is ≥ 6.52. With `Cc1cc(Br)c2[nH]nc3c2c1NC(=O)c1ccccc1-3` [Example 26, 3-Bromo-5-methyl-6,7-dihydro-2H-benzo[5,6]azepino[4,3,2-cd]indazol-7-one], the pIC50 was ≥ 6.52.

On to `C1=Cc2cccc3[nH]nc(c23)-c2ccccc21` [Example 9, 2H-Benzo[6,7]cyclohepta[cd]indazole], for which the pIC50 was ≥ 6.52. With `OCc1cccc2c1CCc1cccc3[nH]nc-2c13` [Example 1, 6,7-Dihydro-2H-benzo[6,7]cyclohepta[cd]indazol-8-ylmethanol], the pIC50 was ≥ 6.52.

(Values after patent US7390797B2, “Fused indazole compounds” (Eisai Co., Ltd., priority 2002, dated 2008).)
